Test results: US11484529B2, “Desmethylanethole trithione derivatives for the treatment of diseases linked to mitochondrial reactive oxygen species (ROS) production” (OP2 Drugs, priority 2017, dated 2022)

Tests used:
[1] = test system: H460 carcinoma cells; assay: Transwell cell migration (metastatic activity); assay type: cell-based, human; conditions: 100 μM NAC, 16 hours
Description: Cell migration assays were performed in Transwells (Corning Inc., 8.0-μm pore size). For migration assay, 2·10^4 cells in serum-free medium were added to the upper wells. Media containing 10% FBS were added to the lower wells. Cells that migrated through the filter after 16 hours were stained with 0.2% crystal violet and counted using the software Image J.
The Transwell test of cell migration has been utilized for this assay and the migration of H460 carcinoma cells has been measured in the presence of two different concentrations of AOX (5 and 10 μM) and compared to the effect of 100 μM N-acetyl cystein (NAC) as a positive control of cytosolic ROS production (FIG. 25).

[2] = test system: site IQ; assay: ROS/H2O2 production, site targeted individually (96-well Amplex Red), 10 mM succinate alone; assay type: biochemical, rat; conditions: 0 to 80 μM; effect at concentrations as low as 2.5 μM
Description: After freshly isolating mitochondria from rat heart, then measuring protein quantity of the mitochondrial suspension, H2O2 production in response to the exogenous addition of increasing concentrations of AOL, AOX and Oltipraz was measured fluorimetrically with Amplex Red and horseradish peroxidase (HRP).
The two major sites of mitochondrial ROS/H2O2 production were targeted individually using the combination of succinate (energy substrate of respiratory complex 2) and known inhibitors of respiratory chain, namely for site IQ, 10 mM succinate alone (CCCP as positive control) and for site IIIQouter, 10 mM succinate, 4 μM rotenone and 2.5 μM antimycin A (myxothiazol as positive control). These “reaction” solutions were designed to generate maximal rates of ROS/H2O2 production predominantly from a single site within the chain (Quinlan et al. 2013. Redox Biol. 1:304-12).
For measurement, a working solution of 50 μM Amplex red reagent and 20 μg/ml HRP was mixed to the reaction buffer into the corresponding wells of a 96-well plate (Greiner 96 F-bottom), in the absence or presence of increasing concentrations (from 0 to 80 μM) of AOL, AOX or Oltipraz. Addition of mitochondria to a final concentration of 0.125 mg/mL per well initiated the assay. The appropriate total volume per microplate well was 200 μL.
Plates were incubated in the dark at room temperature for 20-25 minutes. A double orbital shaking (100 rpm-3 seconds) was applied before reading the endpoint fluorescence values on a CLARIOstar plate reader (BMG LABTECH GmbH, Germany). In fact, H2O2 reacts with Amplex Red in a 1:1 stoichiometry, yielding the fluorescent compound resorufin that was analyzed using the following optic settings (excitation wavelength at 546-20 nm; emission at 600-40 nm; gain: 750).
Also, an H2O2 standard curve, with concentrations ranging from 0 to 5 μM, was prepared in the experimental buffer that consisted in (in mM): 140 sucrose, 100 KCl, 1 EGTA, 20 MgCl2, 10 KH2PO4, and 1 g/L (w/v) BSA essentially fatty acid free (pH 7.2). […]

[3] = test system: NAD(P)H oxidase; assay: Non-mitochondrial ROS/H2O2 production by NAD(P)H oxidase (Amplex Red); assay type: biochemical; conditions: 10 to 100 μM; no mitochondria
Description: Rates of ROS/H2O2 production from heart mitochondria were assessed through the oxidation of the colorless, non-fluorescent indicator Amplex Red in the presence of exogenous horseradish peroxidase (HRP, EC 1.11.1.7, Sigma). H2O2 reacts with Amplex Red in a 1:1 stoichiometry, yielding the fluorescent compound resorufin (excitation: 560 nm; emission: 585 nm) which is stable once formed. Fluorescence was measured continuously with a spectro-fluorometer equipped with temperature control and stirring (SAFAS Xenius, Monaco). Isolated mitochondria (0.1 mg/mL) were incubated in the same experimental buffer than previously, supplemented with 15 μM Amplex Red and 10 μg/mL HRP. Glutamate (5 mM)/malate (2.5 mM) together with succinate (5 mM) were used as complex I and complex II substrates, respectively. Experiments were conducted under non-phosphorylating conditions in the presence of 15 μM atractyloside, i.e., under state IV conditions where […]. Afterwards, rotenone (1.5 μM), antimycin A (2 μM), and myxothiazol (0.2 μM) were sequentially added to inhibit the redox centers within the electron transfer chain (FIG. 2), namely sites IQ, IF (with rotenone), IIIQi (with antimycin A) and IIIQO (with myxothiazol). Assay was finally calibrated with known amounts of H2O2 (steps of 300 nM), in the presence of all relevant compounds, including AOL. The control test of the absence of effect of AOL on the Amplex Red assay itself and NAD(P)H oxidase ROS/H2O2 production was carried out in the absence of cardiac mitochondria and the presence of NAD(P)H oxidase (EC 1.6.3.3, 5 mU/mL, Sigma) and NADH (100 μM) solutions.
The specificity of AOL was further tested in vitro using the peroxidase-Amplex Red system utilized for the measurement of ROS/H2O2 by mitochondria, which in fact measures the appearance of H2O2 by the oxidation of Amplex Red to the fluorescent resorufin (see FIG. 4). In the absence of mitochondria and by adding instead a H2O2-producing system to the measuring system, it was possible to test the effect of AOL on this system. This has been carried out by using commercial NAD(P)H oxidase which produces H2O2 in the presence of added NAD(P)H and measuring the reduction of Amplex Red to resorufin (FIG. 4).
Isolated mitochondria (0.1 mg/mL) were incubated in the same experimental buffer than previously, supplemented with 15 μM Amplex Red and 10 μg/mL HRP. Glutamate (5 mM)/malate (2.5 mM) together with succinate (5 mM) were used as complex I and complex II substrates, respectively. Experiments were conducted under non-phosphorylating conditions in the presence of 15 μM atractyloside. Afterwards, rotenone (1.5 μM), antimycin A (2 μM), and myxothiazol (0.2 μM) were sequentially added to inhibit the redox centers within the electron transfer chain (see FIG. 2), namely sites IQ, IF (with rotenone), IIIQi (with antimycin A) and IIIQO (with myxothiazol). Assay was finally calibrated with known amounts of H2O2 (steps of 300 nM), in the presence of all relevant compounds, including AOX. The control test of the absence of effect of AOL, AOX and Oltipraz on the Amplex Red assay itself and NAD(P)H oxidase […] production was carried out in the absence of cardiac mitochondria and the presence of NAD(P)H oxidase (EC 1.6.3.3, 5 mU/mL, Sigma) and NADH (100 μM) solutions.
The mechanism of action of AOX was further tested in vitro using the peroxidase-Amplex Red system utilized for the measurement of ROS/H2O2 by mitochondria, which in fact measures the appearance of H2O2 by the oxidation of Amplex Red to the fluorescent resorufin (FIG. 22). In the absence of mitochondria and by adding instead a H2O2-producing system to the assay, it was possible to test the effect of AOX on this non-mitochondrial superoxide/H2O2 production. This has been carried out by using commercial NAD(P)H oxidase which produces H2O2 in the presence of added NAD(P)H and measuring the reduction of Amplex Red to resorufin. […]

Structure (SMILES): CC(=O)N[C@@H](CS)C(=O)O [NAC, N-acetyl cysteine]
- metastatic activity (cells crossing the membrane) [1]: huge increase in metastatic activity

Structure (SMILES): Cc1c(-c2cnccn2)ssc1=S [Oltipraz]
- inhibition of ROS production in site IQ [2]: only a poor effect
- effect on ROS measurement with NAD(P)H oxidase [3]: constantly decreased the amount of ROS measured
